# Results from publication PMC5007552, “The hVps34‐SGK3 pathway alleviates sustained PI3K/Akt inhibition by stimulating mTORC1 and tumour growth” (The EMBO Journal, 2016).
# Values joined by “and” are separate entries in the source; they are usually repeats but may differ in a detail not shown here. Identical values can stand only once.
# System: ZR-75-1 cells
# Assay: NanoString human kinome mRNA quantification
# Type: cell-based
# Description: Human mRNAs were hybridised to NanoString human kinome and control code sets, then subjected to quantification using NanoString software. […] To permit data compaction, and simple kinome‐wide comparisons, the fold changes are log2 transformed. […] Cell pellets were resuspended at a concentration of ~6,500 cells/μl in RLT buffer (Qiagen). […] For total copy numbers, triplicate normalised count values were averaged, and to calculate fold induction, means were divided by triplicate mean values from matched DMSO controls. P‐values were calculated using unpaired t‐test (GraphPad Prism software) by employing treated and control count data for each kinase mRNA.
smiles,measurement,setting,value
NC1(c2ccc(-c3nc4ccn5c(=O)[nH]nc5c4cc3-c3ccccc3)cc2)CCC1 [MK-2206],MAP2K6 Normalised counts (single replicates),"MAP2K6 mRNA, replicates 1-3",273.54 and 301.57
same,MAP2K7 Normalised counts Average,"MAP2K7 mRNA, average of 3",452.7
same,MAP2K7 Normalised counts (single replicates),"MAP2K7 mRNA, replicates 1-3",481.41 and 429.05 and 447.64
same,MAP3K1 Normalised counts Average,"MAP3K1 mRNA, average of 3",914.477
same,MAP3K1 Normalised counts (single replicates),"MAP3K1 mRNA, replicates 1-3",890.44 and 933.79 and 919.2
same,MAP3K2 Normalised counts Average,"MAP3K2 mRNA, average of 3",686.32
same,MAP3K2 Normalised counts (single replicates),"MAP3K2 mRNA, replicates 1-3",635.93 and 734.85 and 688.18
same,MAP3K3 Normalised counts Average,"MAP3K3 mRNA, average of 3",686.967
same,MAP3K3 Normalised counts (single replicates),"MAP3K3 mRNA, replicates 1-3",685.93 and 665.35 and 709.62
same,MAP3K4 Normalised counts Average,"MAP3K4 mRNA, average of 3",878.993
same,MAP3K4 Normalised counts (single replicates),"MAP3K4 mRNA, replicates 1-3",874.08 and 929.44 and 833.46
same,MAP3K5 Normalised counts Average,"MAP3K5 mRNA, average of 3",52.5933
same,MAP3K5 Normalised counts (single replicates),"MAP3K5 mRNA, replicates 1-3",46.02 and 55.49 and 56.27
same,MAP3K6 Normalised counts Average,"MAP3K6 mRNA, average of 3",449.24
same,MAP3K6 Normalised counts (single replicates),"MAP3K6 mRNA, replicates 1-3",420.51 and 453.37 and 473.84
same,MAP3K7 Normalised counts Average,"MAP3K7 mRNA, average of 3",743.277
same,MAP3K7 Normalised counts (single replicates),"MAP3K7 mRNA, replicates 1-3",716.83 and 700.97 and 812.03
same,MAP3K8 Normalised counts Average,"MAP3K8 mRNA, average of 3",26.4033
same,MAP3K8 Normalised counts (single replicates),"MAP3K8 mRNA, replicates 1-3",26.93 and 28.56 and 23.72
same,MAP3K9 Normalised counts Average,"MAP3K9 mRNA, average of 3",379.6
same,MAP3K9 Normalised counts (single replicates),"MAP3K9 mRNA, replicates 1-3",365.97 and 402.99 and 369.84
same,MAP3K10 Normalised counts Average,"MAP3K10 mRNA, average of 3",168.847
same,MAP3K10 Normalised counts (single replicates),"MAP3K10 mRNA, replicates 1-3",162.36 and 182.33 and 161.85
same,MAP3K11 Normalised counts Average,"MAP3K11 mRNA, average of 3",121.413
same,MAP3K11 Normalised counts (single replicates),"MAP3K11 mRNA, replicates 1-3",113.28 and 123.25 and 127.71
same,MAP3K12 Normalised counts Average,"MAP3K12 mRNA, average of 3",52.4667
same,MAP3K12 Normalised counts (single replicates),"MAP3K12 mRNA, replicates 1-3",51.47 and 61.57 and 44.36
same,MAP3K13 Normalised counts Average,"MAP3K13 mRNA, average of 3",189.707
same,MAP3K13 Normalised counts (single replicates),"MAP3K13 mRNA, replicates 1-3",181.45 and 198.83 and 188.84
same,MAP3K14 Normalised counts Average,"MAP3K14 mRNA, average of 3",43.9833
same,MAP3K14 Normalised counts (single replicates),"MAP3K14 mRNA, replicates 1-3",37.84 and 44.2 and 49.91
same,MAP3K15 Normalised counts Average,"MAP3K15 mRNA, average of 3",13.0267
same,MAP3K15 Normalised counts (single replicates),"MAP3K15 mRNA, replicates 1-3",12.38 and 17.27 and 9.43
same,MAP4K1 Normalised counts Average,"MAP4K1 mRNA, average of 3",25.6067
same,MAP4K1 Normalised counts (single replicates),"MAP4K1 mRNA, replicates 1-3",20.57 and 28.56 and 27.69
same,MAP4K2 Normalised counts Average,"MAP4K2 mRNA, average of 3",517.167
same,MAP4K2 Normalised counts (single replicates),"MAP4K2 mRNA, replicates 1-3",521.4 and 514.19 and 515.91
same,MAP4K3 Normalised counts Average,"MAP4K3 mRNA, average of 3",998.393
same,MAP4K3 Normalised counts (single replicates),"MAP4K3 mRNA, replicates 1-3",947.71 and 1044.12 and 1003.35
same,MAP4K4 Normalised counts Average,"MAP4K4 mRNA, average of 3",871.587
same,MAP4K4 Normalised counts (single replicates),"MAP4K4 mRNA, replicates 1-3",808.64 and 924.23 and 881.89
same,MAP4K5 Normalised counts Average,"MAP4K5 mRNA, average of 3",2400.42
same,MAP4K5 Normalised counts (single replicates),"MAP4K5 mRNA, replicates 1-3",2332.97 and 2437.58 and 2430.72
same,MAPK1 Normalised counts Average,"MAPK1 mRNA, average of 3",3519.07
same,MAPK1 Normalised counts (single replicates),"MAPK1 mRNA, replicates 1-3",3459.18 and 3429.68 and 3668.36
same,MAPK3 Normalised counts Average,"MAPK3 mRNA, average of 3",2954.55
same,MAPK3 Normalised counts (single replicates),"MAPK3 mRNA, replicates 1-3",2922.89 and 2952.74 and 2988.02
same,MAPK4 Normalised counts Average,"MAPK4 mRNA, average of 3",4.88
same,MAPK4 Normalised counts (single replicates),"MAPK4 mRNA, replicates 1-3",3.29 and 5.1 and 6.25
same,MAPK6 Normalised counts Average,"MAPK6 mRNA, average of 3",1788.65
same,MAPK6 Normalised counts (single replicates),"MAPK6 mRNA, replicates 1-3",1729.42 and 1778.2 and 1858.34
same,MAPK7 Normalised counts Average,"MAPK7 mRNA, average of 3",144.45
same,MAPK7 Normalised counts (single replicates),"MAPK7 mRNA, replicates 1-3",156 and 134.55 and 142.8
same,MAPK8 Normalised counts Average,"MAPK8 mRNA, average of 3",551.453
same,MAPK8 Normalised counts (single replicates),"MAPK8 mRNA, replicates 1-3",558.67 and 556.75 and 538.94
same,MAPK9 Normalised counts Average,"MAPK9 mRNA, average of 3",3428.01
same,MAPK9 Normalised counts (single replicates),"MAPK9 mRNA, replicates 1-3",3385.55 and 3472.25 and 3426.23
same,MAPK10 Normalised counts Average,"MAPK10 mRNA, average of 3",51.74
same,MAPK10 Normalised counts (single replicates),"MAPK10 mRNA, replicates 1-3",66.92 and 32.03 and 56.27
same,MAPK11 Normalised counts Average,"MAPK11 mRNA, average of 3",204.103
same,MAPK11 Normalised counts (single replicates),"MAPK11 mRNA, replicates 1-3",193.27 and 212.73 and 206.31
same,MAPK12 Normalised counts Average,"MAPK12 mRNA, average of 3",217.317
same,MAPK12 Normalised counts (single replicates),"MAPK12 mRNA, replicates 1-3",225.99 and 210.13 and 215.83
same,MAPK13 Normalised counts Average,"MAPK13 mRNA, average of 3",1105.76
same,MAPK13 Normalised counts (single replicates),"MAPK13 mRNA, replicates 1-3",1118.59 and 1094.51 and 1104.17
same,MAPK14 Normalised counts Average,"MAPK14 mRNA, average of 3",677.43
same,MAPK14 Normalised counts (single replicates),"MAPK14 mRNA, replicates 1-3",691.38 and 666.22 and 674.69
same,MAPK15 Normalised counts Average,"MAPK15 mRNA, average of 3",105.53
same,MAPK15 Normalised counts (single replicates),"MAPK15 mRNA, replicates 1-3",90.56 and 110.22 and 115.81
same,MAPKAPK2 Normalised counts Average,"MAPKAPK2 mRNA, average of 3",1630.94
same,MAPKAPK2 Normalised counts (single replicates),"MAPKAPK2 mRNA, replicates 1-3",1646.7 and 1595.77 and 1650.35
same,MAPKAPK3 Normalised counts Average,"MAPKAPK3 mRNA, average of 3",413.777
same,MAPKAPK3 Normalised counts (single replicates),"MAPKAPK3 mRNA, replicates 1-3",380.52 and 429.05 and 431.76
same,MAPKAPK5 Normalised counts Average,"MAPKAPK5 mRNA, average of 3",1446.88
same,MAPKAPK5 Normalised counts (single replicates),"MAPKAPK5 mRNA, replicates 1-3",1508.54 and 1415.94 and 1416.16
same,MARK1 Normalised counts Average,"MARK1 mRNA, average of 3",415.69
same,MARK1 Normalised counts (single replicates),"MARK1 mRNA, replicates 1-3",399.6 and 430.79 and 416.68
same,MARK2 Normalised counts Average,"MARK2 mRNA, average of 3",1522.43
same,MARK2 Normalised counts (single replicates),"MARK2 mRNA, replicates 1-3",1510.36 and 1537.56 and 1519.36
same,MARK3 Normalised counts Average,"MARK3 mRNA, average of 3",1279.49
same,MARK3 Normalised counts (single replicates),"MARK3 mRNA, replicates 1-3",1275.85 and 1283.02 and 1279.61
same,MARK4 Normalised counts Average,"MARK4 mRNA, average of 3",1238.46
same,MARK4 Normalised counts (single replicates),"MARK4 mRNA, replicates 1-3",1216.76 and 1258.7 and 1239.92
same,MAST1 Normalised counts Average,"MAST1 mRNA, average of 3",64.11
same,MAST1 Normalised counts (single replicates),"MAST1 mRNA, replicates 1-3",68.74 and 54.62 and 68.97
same,MAST2 Normalised counts Average,"MAST2 mRNA, average of 3",721.127
